{"source": "ChEMBL document CHEMBL1151057", "about": "“Difunctional enols of N-protected amino acids as low molecular weight and novel inhibitors of HIV-1 protease” (Bioorg Med Chem Lett, 1993)", "data": [{"target": "T1, Human immunodeficiency virus type 1 protease (Human immunodeficiency virus 1, UniProt Q72874)", "experiment": "Inhibitory concentration required to inhibit HIV-1 protease was determined", "settings": "not given; call rule not given here", "units": {"IC50": "µM"}, "values": [{"smiles": "CC(C)(C)OC(=O)NCC(=O)N[C@@H](Cc1ccccc1)/C(O)=C(\\C#N)c1ccc([N+](=O)[O-])cc1", "IC50": 58}]}, {"target": "T1, Human immunodeficiency virus type 1 protease", "experiment": "Inhibitory constant against HIV-1 protease at 400 uM; NI means no inhibition", "settings": "not given", "values": [{"smiles": "CC(=O)NC(CC(C)C)C(=O)N[C@@H](Cc1ccccc1)C(O)=C(C#N)C#N", "note": "(stereo partly drawn)", "Ki": "Not Active"}]}, {"target": "T1, Human immunodeficiency virus type 1 protease", "experiment": "Inhibitory constant against HIV-1 protease was determined", "settings": "not given", "units": {"Ki": "µM"}, "values": [{"smiles": "CC(=O)NC(CC(C)C)C(=O)N[C@@H](Cc1ccccc1)/C(O)=C(\\C#N)c1ccc([N+](=O)[O-])cc1", "note": "(stereo partly drawn)", "Ki": 9.5}, {"smiles": "CC(=O)NC(CC(C)C)C(=O)N[C@@H](Cc1ccccc1)/C(O)=C(\\C#N)c1ccncc1", "note": "(stereo partly drawn)", "Ki": 168}, {"smiles": "CCOP(=O)(OCC)/C(C#N)=C(\\O)[C@H](Cc1ccccc1)NC(=O)C(CC(C)C)NC(C)=O", "note": "(stereo partly drawn)", "Ki": 206}, {"smiles": "CC(=O)NC(CC(C)C)C(=O)N[C@@H](Cc1ccccc1)/C(O)=C(\\C#N)S(=O)(=O)c1ccccc1", "note": "(stereo partly drawn)", "Ki": 152}, {"smiles": "CO/C(O)=C(/C#N)C(=O)[C@H](Cc1ccccc1)NC(=O)C(CC(C)C)NC(C)=O", "note": "(stereo partly drawn)", "Ki": 209}]}, {"target": "T1, Human immunodeficiency virus type 1 protease", "experiment": "Apparent inhibitory constant against HIV-1 protease was determined", "settings": "read-out: Ki app", "units": {"Ki": "µM"}, "values": [{"smiles": "CC(C)(C)OC(=O)N[C@@H](Cc1ccccc1)/C(O)=C(\\C#N)c1c(F)c(F)c(F)c(F)c1F", "Ki": 0.48}, {"smiles": "CC(=O)NC(CC(C)C)C(=O)N[C@@H](Cc1ccccc1)/C(O)=C(\\C#N)c1ccc([N+](=O)[O-])cc1", "note": "(stereo partly drawn)", "Ki": 9}, {"smiles": "N#C/C(=C(/O)[C@H](Cc1ccccc1)NC(=O)OCc1ccccc1)c1ccc([N+](=O)[O-])cc1", "Ki": 30}, {"smiles": "CC(C)(C)OC(=O)N[C@@H](C(=O)C(N)Cc1ccccc1)/C(O)=C/c1ccc([N+](=O)[O-])cc1", "note": "(stereo partly drawn)", "Ki": 689}, {"smiles": "CC(C)(C)OC(=O)N[C@@H](C(=O)[C@@H](N)Cc1ccccc1)/C(O)=C(\\C#N)c1ccc([N+](=O)[O-])cc1", "Ki": 54}, {"smiles": "CC(C)(C)OC(=O)N[C@@H](C(=O)C(N)CC1CCCCC1)/C(O)=C(\\C#N)c1ccc([N+](=O)[O-])cc1", "note": "(stereo partly drawn)", "Ki": 15}, {"smiles": "CC(C)(C)OC(=O)N[C@@H](C(=O)C(N)c1ccccc1)/C(O)=C(\\C#N)c1ccc([N+](=O)[O-])cc1", "note": "(stereo partly drawn)", "Ki": 30}, {"smiles": "CC(C)(C)OC(=O)N[C@@H](C(=O)C(N)Cc1c[nH]c2ccccc12)/C(O)=C(\\C#N)c1ccc([N+](=O)[O-])cc1", "note": "(stereo partly drawn)", "Ki": 18}, {"smiles": "CC(C)(C)OC(=O)N[C@@H](C(=O)C(N)Cc1ccc([N+](=O)[O-])cc1)/C(O)=C(\\C#N)c1ccc([N+](=O)[O-])cc1", "note": "(stereo partly drawn)", "Ki": 60}, {"smiles": "CC(C)(C)OC(=O)N[C@@H](C(=O)C(N)Cc1ccc2ccccc2c1)/C(O)=C(\\C#N)c1ccc([N+](=O)[O-])cc1", "note": "(stereo partly drawn)", "Ki": 38}, {"smiles": "CC(C)(C)OC(=O)N[C@@H](Cc1ccccc1)/C(O)=C(\\C#N)c1ccc([N+](=O)[O-])cc1", "Ki": 2.3}, {"smiles": "CC(=O)NC(CC(C)C)C(=O)N[C@@H](Cc1ccccc1)/C(O)=C(\\C#N)c1c(F)c(F)c(F)c(F)c1F", "note": "(stereo partly drawn)", "Ki": 7}, {"smiles": "N#C/C(=C(/O)[C@H](Cc1ccccc1)NC(=O)OCC1c2ccccc2-c2ccccc21)c1ccc([N+](=O)[O-])cc1", "Ki": 78}, {"smiles": "CC(C)(C)OC(=O)N[C@@H](C(=O)C1CCCN1)/C(O)=C(\\C#N)c1ccc([N+](=O)[O-])cc1", "note": "(stereo partly drawn)", "Ki": 181}, {"smiles": "CC(C)(C)OC(=O)N[C@H](C(=O)/C(C#N)=C(\\O)c1ccccc1)C(=O)C(N)Cc1ccccc1", "note": "(stereo partly drawn)", "Ki": 320}, {"smiles": "CC(C)(C)OC(=O)N[C@@H](C(=O)C(N)Cc1ccc(OCc2ccccc2)cc1)/C(O)=C(\\C#N)c1ccc([N+](=O)[O-])cc1", "note": "(stereo partly drawn)", "Ki": 12}]}]}
